Results reported in patent publication US20120082736A1, “Small-molecule TNF modulator to reduce the side effects of chemotherapy and radiotherapy” (GeneBlue Corporation, priority 2010, published 2012).
“Also recorded” adds a separate entry of the source.

Experiments:
[1] = tested on: human colon cancer cells (HCT-15); experiment: Effect of UTL-5g pretreatment on antitumor effect of cisplatin, HCT-15 tumors in SCID mice (Example 4); type: in vivo
Protocol: FIG. 7. Effect of UTL-5g pre-treatment on the antitumor effect of cisplatin Group 1, saline, daily ×5 (control); Group 2, cisplatin (2.5 mg/kg) in saline, daily ×5; Group 3, UTL-5g (60 mg/kg) followed by cisplatin (2.5 mg/kg) 30 min later, daily ×5. […] Gp: Group
In order to qualify UTL-5g as a chemoprotective agent, a therapeutic assessment was conducted to evaluate the effect of UTL-5g on the efficacy of cisplatin. Briefly, 25 SCID mice were randomly divided into 5 groups as below. • Gp 1: Saline daily ×5 (control) • Gp 2: Cisplatin 0.2 mg/mL (2.5 mg/kg), daily ×5 • Gp 3: UTL-5g (60 mg/kg) followed by cisplatin (2.5 mg/kg) 30 min later, daily ×5 • Gp 4: Cisplatin 0.4 mg/mL ([…]) in saline, day 1 only • Gp 5: UTL-5g (60 mg/kg) followed by cisplatin (5 mg/kg) 30 min later, day 1 only
Cisplatin was dissolved in saline. UTL-5g was prepared in DMSO/Cremophor/propylene glycol/saline as described in previous section. All injections were ip and the injection volume was 0.25 mL. Three days before treatment (Day −2), human colon cancer cells (HCT-15) were injected subcutaneously and bilaterally (1×10^6 cells per site per mouse) in each SCID mouse in all groups and tumor sizes were measured by a caliper every 2-3 days and the animals were sacrificed when tumor reached 1,200 mm^3.
The % T/C value is used here as the end-point. […]

[2] = tested on: BDF1 female mice treated with cisplatin; experiment: Effect of pretreatment on BUN/creatinine, AST/ALT, WBC/platelet in blood of cisplatin-treated mice (Example 2); type: in vivo; conditions: daily ×5, blood day 6
Protocol: Gp 1: medium (saline). Gp 2: saline followed by cisplatin (2.5 mg/kg) 30 min later. Gp 3: UTL-5g (15 mg/kg) followed by cisplatin (2.5 mg/kg) 30 min later. Gp 4: UTL-5g (30 mg/kg) followed by cisplatin (2.5 mg/kg) 30 min later. Gp 5: UTL-5g (60 mg/kg) followed by cisplatin (2.5 mg/kg) 30 min later. Gp 6: amifostine (200 mg/kg) followed by cisplatin (2.5 mg/kg) 30 min later; Gp 7: saline followed by cisplatin (5 mg/kg) 30 min later. Gp 1-Gp 6 were daily ×5, but Gp 7 was by single dose on day 0 only. StDev is shown for each Gp (n=5 for each group except for Gp 7, n=3). ** two-tailed p<0.005 vs medium control by Student's t-test.
(§1) Gp 1: medium (saline). Gp 2: saline followed by cisplatin (2.5 mg/kg) 30 min later. Gp 3: UTL-5g (15 mg/kg) followed by cisplatin 30 min later. Gp 4: UTL-5g (30 mg/kg) followed by cisplatin (2.5 mg/kg) 30 min later. Gp 5: UTL-5g (60 mg/kg) followed by cisplatin (2.5 mg/kg) 30 min later. Gp 6: amifostine (200 mg/kg) followed by cisplatin (2.5 mg/kg) 30 min later. Gp 7: saline followed by cisplatin (5 mg/kg) 30 min later. Gp 1-Gp 6 were daily ×5, but Gp 7 was by single dose on day 0 only. StDev is shown for each Gp (n=5 for each group except n=4 for Gp 7). * P<0.05, ** p<0.005 vs. medium control (Gp 1) by Student's t-test (two-tailed).
as §1, with “p<0.005, *** p<0.0005” for “p<0.005”, “control” for “control (Gp 1)”
BDF1 female mice (average wt ˜20 g/mouse) were randomly divided into the following groups (5 mice per group) and each treated daily ×5 (starting from day 0) by ip injection (0.25 mL/mouse), except in Gp 7, each was treated by a single dose ip injection (0.25 mL/mouse) on day 0 only, as described below • Gp 1: medium (saline) followed by medium (saline) 30 min later • Gp 2: medium (saline) followed by cisplatin (2.5 mg/kg) 30 min later • Gp 3: UTL-5g (15 mg/kg) followed by cisplatin (2.5 mg/kg) 30 min later • Gp 4: UTL-5g (30 mg/kg) followed by cisplatin (2.5 mg/kg) 30 min later • Gp 5: UTL-5g (60 mg/kg) followed by cisplatin (2.5 mg/kg) 30 min later • Gp 6: amifostine (200 mg/kg) followed by cisplatin (2.5 mg/kg) 30 min later • Gp 7: medium (saline) followed by cisplatin (5 mg/kg) 30 min later (single dose on Day 0 only)
Preparation of the test samples are described below: • Cisplatin: Cisplatin was dissolved in saline (0.2 and 0.4 mg/mL in saline) for 2.5 and 5 mg/kg ip injection. • UTL-5g: The stock solution of UTL-5g was first dissolved in DMSO and equal volume of Cremophor/propylene glycol (60/40 v/v) was added to make a stock solution. Immediately before the injection, saline was added to this temporary solution at a 90:10 v/v ratio and mixed thoroughly. Three concentrations for ip injection were prepared (1.25, 2.5, and 5 mg/mL) so that the doses are equivalent to 15, 30, and 60 mg/kg with a 0.25 mL injection. • Amifostine: The stock solution of amifostine was dissolved in saline to the desired concentration (16 mg/mL) for the 200 mg/kg injection.
Cardiac puncture was used to obtain blood from each mouse on day 6. To assess liver/kidney protection by UTL-5g, all blood samples were analyzed for BUN, creatinine, AST, and ALT by the chemistry lab at Henry Ford Health System. Unopette® (Becton Dickinson, Franklin Lakes, N.J.) diluting systems and a hemocytometer were used to assess the effect of UTL-5g on WBC and platelet counts in blood.

[3] = UTL-5g 15, 30, 60 mg/kg ip 30 min before cisplatin 2.5 mg/kg
[4] = ip 30 min before cisplatin 2.5 mg/kg, UTL-5g 15, 30, 60 mg/kg, amifostine 200 mg/kg

## Cc1cc(C(=O)Nc2ccc(Cl)cc2Cl)no1 [UTL-5g]
[1]; UTL-5g 60 mg/kg 30 min before cisplatin 2.5 mg/kg, daily ×5 (Gp 3 vs Gp 2)
  effect on efficacy of cisplatin: increased the efficacy of cisplatin; also recorded: did not have tumor-protective effect and actually increased the efficacy of cisplatin
[1]; UTL-5g 60 mg/kg 30 min before cisplatin 5 mg/kg, single dose (Gp 5 vs Gp 4)
  enhancement of efficacy of cisplatin: not observed
[2]; UTL-5g 60 mg/kg ip 30 min before cisplatin 2.5 mg/kg
  platelet count relative to control: > 3 times of the control
[2]; [3]
  ALT levels, effect of pretreatment: also reduced by UTL-5g; also recorded: lowered the elevated levels
  AST levels, effect of pretreatment: reduced by UTL-5g; also recorded: lowered the elevated levels
[2]; UTL-5g ip 30 min before cisplatin 2.5 mg/kg
  WBC count, effect of pretreatment: did not significantly increase the WBC count
[2]; [4]
  BUN levels, effect of pretreatment: suppressed by UTL-5g in a dose-dependent manner; also recorded: lowered the elevated levels
  creatinine, effect of pretreatment: Essentially the same results; also recorded: lowered the elevated levels
[2]; ip 30 min before cisplatin 2.5 mg/kg, UTL-5g 15, 30, 60 mg/kg, amifostine 200 mg/kg, vs Gp 1 (Control)
  platelet count, effect of pretreatment: increased platelet count in a dose-dependent manner
